Results reported in publication PMC9304199, “A small molecule CFTR potentiator restores ATP‐dependent channel gating to the cystic fibrosis mutant G551D‐CFTR” (British Journal of Pharmacology, 2022).
Read-outs that look alike come from different tables or passages of the source.

Columns and labels:
[1] = molecular target: T1, wild‐type CFTR (Homo sapiens, UniProt P13569); assay: Single-channel recording in excised inside-out membrane patches, wild-type CFTR; format: biochemical; conditions: ATP 0.3 mM; for maximum Po (Po max) / EC50: PKA 75 nM, ~23°C; for EC50: read-out: EC50 for potentiation of Po
T1 construct: expressed in transfected cells
Experimental: For CFTR studies using automated electrophysiology and single-channel recording, we used baby hamster kidney (BHK) cells (RRID:CVCL_1915) and human embryonic kidney (HEK) 293 cells (RRID:CVCL_0045) stably expressing wild-type human CFTR and the CFTR variants F508del- and […] et al., [2002]; Xu et al., [2014]). […] HEK cells expressing CFTR variants were generated using the Flp-InTM system as described above for F508del- and G551D-CFTR-expressing FRT cells. They were cultured in Dulbecco's modified Eagle's medium (glucose, 1.5 g·L^-1; sodium pyruvate, 110 mg·L^-1) supplemented with 10% FBS (PAA Laboratories), GlutaMAXTM and hygromycin-B (150 μg·ml^-1; InvitrogenTM, Thermo Fisher Scientific) at 37°C in a humidified atmosphere with 5% CO2. Prior to study, F508del-CFTR expressed in HEK cells was trafficked to the plasma membrane by low temperature incubation (27°C for 24-72 h). The single-channel behaviour of human CFTR in excised membrane patches from different mammalian cell lines heterologously expressing CFTR is equivalent (wild-type CFTR, Chen et al., [2009]; F508del-CFTR, Bose et al., [2019]; and G551D-CFTR, J Liu, Y Wang, Z Cai, and DN Sheppard, unpublished observations). CFTR Cl^- channels were recorded in excised inside-out membrane patches using an Axopatch 200B patch-clamp amplifier and pCLAMP software (version 10.3) (RRID:SCR_011323) (both from Molecular Devices, San Jose, CA, USA) (Sheppard & Robinson, [1997]). […] Within 2 min after membrane patch excision, we added the catalytic subunit of protein kinase A (PKA; 75 nM) and ATP (1 mM) to the intracellular solution to activate CFTR Cl^- channels. To minimise channel rundown, we added PKA and millimolar concentrations of ATP to all intracellular solutions and clamped voltage at -50 mV. […] We reduced the ATP concentration when testing CFTR potentiators on wild-type CFTR to observe their effects more clearly. […] Instead, specific interventions with CFTR potentiators were compared with the pre-intervention control period made with the same concentration of ATP and PKA, but without test compounds. […] F508del-CFTR, n ≤ 4; G551D-CFTR, n ≤ 5). To determine channel number, we used the maximum number of simultaneous channel openings observed during an experiment (Cai et al., [2006]). To minimise errors, we used experimental conditions that robustly potentiate channel activity and verified that recordings were of sufficient length to ascertain the correct number of channels ([…] et al., [1994]). […] Despite our precautions, we cannot exclude the possibility of unobserved G551D-CFTR Cl^- channels in excised membrane patches causing Po values for G551D-CFTR to be […]. Therefore, Po values for G551D-CFTR are expressed as apparent Po (Po(app)) values. Single-channel currents were directly acquired to a computer hard disc after filtering at a corner frequency (f c) of 500 Hz with an eight-pole Bessel filter (model LHBF-48×; npi electronic GmbH, Tamm, Germany) and digitising at a sampling rate of 5 kHz using a Digidata 1440A interface (Molecular Devices) and pCLAMP software. […] The mean interburst interval (TIBI) was calculated using the equation (Cai et al., [2006]): (1) Po=Tb/TMBD+TIBI, where T b = (mean burst duration) × (open probability within a burst). Mean burst duration (T MBD) and open probability within a burst (Po[burst]) were determined directly from experimental data using pCLAMP software. […]

[2] = molecular target: G551D‐CFTR (Homo sapiens, UniProt P13569, G551D); assay: Single-channel recording in excised inside-out membrane patches, G551D‐CFTR; format: biochemical; design: expressed in transfected cells; BHK cells from MD Amaral; conditions: for enhancement of Po(app): each compound 10 μM, alone or together; for Emax: read-out: Maximal effect (%) (95% CI)
Experimental: For CFTR studies using automated electrophysiology and single-channel recording, we used baby hamster kidney (BHK) cells (RRID:CVCL_1915) and human embryonic kidney (HEK) 293 cells (RRID:CVCL_0045) stably expressing wild-type human CFTR and the CFTR variants F508del- and […] et al., [2002]; Xu et al., [2014]). […] HEK cells expressing CFTR variants were generated using the Flp-InTM system as described above for F508del- and G551D-CFTR-expressing FRT cells. They were cultured in Dulbecco's modified Eagle's medium (glucose, 1.5 g·L^-1; sodium pyruvate, 110 mg·L^-1) supplemented with 10% FBS (PAA Laboratories), GlutaMAXTM and hygromycin-B (150 μg·ml^-1; InvitrogenTM, Thermo Fisher Scientific) at 37°C in a humidified atmosphere with 5% CO2. Prior to study, F508del-CFTR expressed in HEK cells was trafficked to the plasma membrane by low temperature incubation (27°C for 24-72 h). The single-channel behaviour of human CFTR in excised membrane patches from different mammalian cell lines heterologously expressing CFTR is equivalent (wild-type CFTR, Chen et al., [2009]; F508del-CFTR, Bose et al., [2019]; and G551D-CFTR, J Liu, Y Wang, Z Cai, and DN Sheppard, unpublished observations). CFTR Cl^- channels were recorded in excised inside-out membrane patches using an Axopatch 200B patch-clamp amplifier and pCLAMP software (version 10.3) (RRID:SCR_011323) (both from Molecular Devices, San Jose, CA, USA) (Sheppard & Robinson, [1997]). […] Within 2 min after membrane patch excision, we added the catalytic subunit of protein kinase A (PKA; 75 nM) and ATP (1 mM) to the intracellular solution to activate CFTR Cl^- channels. To minimise channel rundown, we added PKA and millimolar concentrations of ATP to all intracellular solutions and clamped voltage at -50 mV. […] We reduced the ATP concentration when testing CFTR potentiators on wild-type CFTR to observe their effects more clearly. […] Instead, specific interventions with CFTR potentiators were compared with the pre-intervention control period made with the same concentration of ATP and PKA, but without test compounds. […] F508del-CFTR, n ≤ 4; G551D-CFTR, n ≤ 5). To determine channel number, we used the maximum number of simultaneous channel openings observed during an experiment (Cai et al., [2006]). To minimise errors, we used experimental conditions that robustly potentiate channel activity and verified that recordings were of sufficient length to ascertain the correct number of channels ([…] et al., [1994]). […] Despite our precautions, we cannot exclude the possibility of unobserved G551D-CFTR Cl^- channels in excised membrane patches causing Po values for G551D-CFTR to be […]. Therefore, Po values for G551D-CFTR are expressed as apparent Po (Po(app)) values. Single-channel currents were directly acquired to a computer hard disc after filtering at a corner frequency (f c) of 500 Hz with an eight-pole Bessel filter (model LHBF-48×; npi electronic GmbH, Tamm, Germany) and digitising at a sampling rate of 5 kHz using a Digidata 1440A interface (Molecular Devices) and pCLAMP software. To measure single-channel current amplitude (i), Gaussian distributions were fit to current amplitude histograms. For Po and burst analyses, lists of open- and closed-times were created using a half-amplitude crossing criterion for event detection and dwell-time histograms constructed as previously described (Sheppard & Robinson, [1997]); transitions < 1 ms were excluded from the analysis (eight-pole Bessel filter rise time [T 10-90] ~ 0.73 ms at f c = 500 Hz). Histograms were fitted with one or more component exponential functions using the maximum likelihood method. […] The mean interburst interval (TIBI) was calculated using the equation (Cai et al., [2006]): (1) Po=Tb/TMBD+TIBI, where T b = (mean burst duration) × (open probability within a burst). Mean burst duration (T MBD) and open probability within a burst (Po[burst]) were determined directly from experimental data using pCLAMP software. […]

[3] = G551D‐CFTR Cl− channels, excised inside-out patches, 23°C, data normalised to ivacaftor 1 μM, read-out: EC50 (μM) (95% CI)
[4] = G551D‐CFTR, ATP 1 mM, PKA 75 nM, ~23°C
[5] = G551D‐CFTR, ATP 1 mM, PKA 75 nM, ~23°C, read-out: EC50 for potentiation of Po(app)
[6] = G551D‐CFTR, compound 10 μM, ATP 0.1–3 mM

T1 sequence (P13569 whole entry): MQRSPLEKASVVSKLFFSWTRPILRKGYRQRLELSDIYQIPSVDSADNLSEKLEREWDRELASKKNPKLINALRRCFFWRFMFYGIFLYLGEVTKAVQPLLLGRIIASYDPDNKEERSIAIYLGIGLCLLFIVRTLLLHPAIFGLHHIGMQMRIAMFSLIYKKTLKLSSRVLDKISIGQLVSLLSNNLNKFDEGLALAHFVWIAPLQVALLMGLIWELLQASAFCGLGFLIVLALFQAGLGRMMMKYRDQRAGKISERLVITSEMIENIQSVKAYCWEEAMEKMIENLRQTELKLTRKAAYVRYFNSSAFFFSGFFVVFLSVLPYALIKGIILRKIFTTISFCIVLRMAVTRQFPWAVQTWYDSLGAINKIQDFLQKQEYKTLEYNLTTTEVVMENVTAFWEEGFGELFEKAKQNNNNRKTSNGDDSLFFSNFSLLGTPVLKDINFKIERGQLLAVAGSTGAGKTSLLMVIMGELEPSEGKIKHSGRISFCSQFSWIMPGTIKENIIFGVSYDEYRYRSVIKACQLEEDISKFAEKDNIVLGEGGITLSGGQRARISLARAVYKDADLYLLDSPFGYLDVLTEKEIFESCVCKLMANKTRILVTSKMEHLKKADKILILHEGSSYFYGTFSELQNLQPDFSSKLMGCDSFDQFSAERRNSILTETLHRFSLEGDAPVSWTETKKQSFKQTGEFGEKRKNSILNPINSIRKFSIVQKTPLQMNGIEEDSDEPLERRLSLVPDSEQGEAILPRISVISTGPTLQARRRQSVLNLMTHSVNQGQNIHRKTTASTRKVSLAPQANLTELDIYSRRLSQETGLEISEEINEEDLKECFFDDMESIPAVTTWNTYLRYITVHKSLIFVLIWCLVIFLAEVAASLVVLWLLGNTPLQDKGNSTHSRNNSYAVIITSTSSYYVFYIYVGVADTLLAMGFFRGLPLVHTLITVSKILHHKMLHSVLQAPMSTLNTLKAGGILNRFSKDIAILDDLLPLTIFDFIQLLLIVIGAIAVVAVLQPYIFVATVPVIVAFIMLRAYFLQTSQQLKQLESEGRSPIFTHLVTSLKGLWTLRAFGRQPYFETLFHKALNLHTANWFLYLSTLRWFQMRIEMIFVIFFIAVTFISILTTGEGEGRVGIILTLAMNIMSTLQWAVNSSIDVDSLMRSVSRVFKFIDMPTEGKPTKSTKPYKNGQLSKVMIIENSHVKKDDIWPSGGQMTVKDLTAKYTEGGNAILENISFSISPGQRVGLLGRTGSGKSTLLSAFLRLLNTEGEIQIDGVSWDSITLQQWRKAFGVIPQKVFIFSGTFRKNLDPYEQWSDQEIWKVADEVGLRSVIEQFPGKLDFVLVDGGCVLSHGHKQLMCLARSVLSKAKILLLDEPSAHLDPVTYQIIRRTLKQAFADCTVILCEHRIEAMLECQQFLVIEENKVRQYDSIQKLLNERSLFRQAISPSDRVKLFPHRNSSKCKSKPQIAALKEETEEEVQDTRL
Chain of G551D‐CFTR (P13569 whole entry G551D): as the sequence (P13569 whole entry) above, with G551D counted along it

Cc1ncccc1CNC(=O)c1ccc2c(c1)CC[C@H]1C[C@](O)(CCC(F)(F)F)CC[C@]21Cc1ccccc1 (racemic) [CP‐628006, rac‐(4bR,7R,8aS)‐4b‐benzyl‐7‐hydroxy‐N‐((2‐methylpyridin‐3‐yl)methyl)‐7‐(3,3,3‐trifluoropropyl)‐4b,5,6,7,8,8a,9,10‐octahydrophenanthrene‐2‐carboxamide]
maximum Po (Po max) [1]: 0.77 | EC50 [1]: 24 nM | EC50 [2, 3]: 0.17 µM | Po(app) max [2, 4]: 0.38 | EC50 [2, 5]: 0.38 µM | Po(app) max of ATP-dependence in presence of compound [2, 6]: 0.30 | enhancement of Po(app) ([2]; G551D‐CFTR, ATP 1 mM): 71 ± 30 fold | Emax [2]: 145%

CC(C)(C)c1cc(C(C)(C)C)c(NC(=O)c2c[nH]c3ccccc3c2=O)cc1O [ivacaftor, reference compound]
greater potency than CP‐628006 [1]: 100 fold | maximum Po (Po max) [1]: 0.71 | EC50 [1]: 0.21 nM | EC50 [2, 3]: 0.036 µM | Po(app) max [2, 4]: 0.31 | EC50 [2, 5]: 0.14 µM | ATP-dependence of G551D‐CFTR activity in presence of compound [2, 6]: unaffected by altering the ATP concentration | enhancement of Po(app) ([2]; G551D‐CFTR, ATP 1 mM): 44 ± 12 fold | Emax [2]: 96.7%
